How the values were obtained:
A375 (melanoma) = assay: WST-1 cell viability assay, 48-h incubation; assay type: cell-based, human; details: A375, WST-1, 48 h, vs. vehicle; even at 3 µM in some (unnamed) cell lines
Description: (§1) To test the biological activity of the thia-analogous indirubin N-glycosides that are the focus of the present work, the effects of KD87 and KD85 and their non-glycosylated parent compound KD88 on the viability of various tumor cell lines were initially investigated. The corresponding analyses were performed using the cell lines A375 (melanoma), A431 (skin squamous cell carcinoma), A549 (non-small cell lung carcinoma), U251MG (glioblastoma), and U138MG (glioblastoma).
(§2) Figure 2 Effect of increasing concentrations of KD87 (A), KD85 (B), and KD88 (C) on viability of various cancer cells. A375 (melanoma; black columns), A431 (skin squamous cell carcinoma; dark grey columns), A549 (non-small cell lung carcinoma; grey columns), U251MG (glioblastoma; light grey columns), or U138MG (glioblastoma; white columns) were incubated for 48 h with the appropriate compounds or vehicle followed by determination of cell viability by WST-1 assay. Percent control represents comparison with vehicle-treated cells (100%) in the absence of test substance. Values are mean ± standard error of the mean (SEM) of n = 15 in all panels, except n = 14 for A375 and A431 cells in panel B and n = 14–15 for A375 cells in panel C, from four (A375, A431) or five (A549, U251MG, U138MG) independent experiments. * p ≤ 0.05, ** p ≤ 0.01, *** p ≤ 0.001, **** p ≤ 0.0001 vs. vehicle control; one-way ANOVA with Dunnett’s post hoc test.
(§3) The human melanoma cell line A375 (#300110; RRID:CVCL_0132) as well as the human skin epidermoid carcinoma cell line A431 (#300112; RRID:CVCL_0037) were purchased from CLS Cell Lines Service GmbH (Eppelheim, Germany). The human glioblastoma cell line U251MG (#09063001; RRID:CVCL_0021) was from Sigma-Aldrich Corporation. The human glioblastoma cell line U138MG (#ACC 291; RRID: CVCL_0020) and the human lung carcinoma cell line A549 (#ACC 107, RRID:CVCL_0023) were purchased from DSMZ (Deutsche Sammlung von Mikroorganismen und Zellkulturen GmbH, Braunschweig, Germany).
(§4) Cells were cultured in high-glucose DMEM (with GlutaMAX™-I: A375, A431; with UltraGlutamine^TM I: A549, U251MG, U138MG) supplemented with 10% heat-inactivated FBS, 100 U/mL penicillin, and 100 μg/mL streptomycin and grown in a humidified incubator at 37 °C and 5% CO2. For viability analyses, cells were seeded in 96-well plates at a density of 5000 cells per well in DMEM containing 10% heat-inactivated FBS and cultured for 24 h. All cell experiments with the specific substances were performed in serum-free DMEM supplemented with 100 U/mL penicillin and 100 μg/mL streptomycin, applied after washing the cells with DPBS. The test substances were dissolved in DMSO. The final concentration of DMSO in the incubation media of test substance- and vehicle-treated cells was 1% (v/v).
(§5) After completion of the 48-h incubation, WST-1 reagent (Sigma, Taufkirchen, Germany) was added to the cells to achieve a final dilution of 1:10, and the cells were incubated for an additional 20 min before absorbance was measured at 450 nm, reference wavelength […], using a microplate reader.

[1] = system: A431 (skin squamous cell carcinoma); assay: WST-1 cell viability assay, 48-h incubation; assay type: cell-based, human; details: A431, WST-1, 48 h, vs. vehicle; even at 3 µM in some (unnamed) cell lines
Description: as §1, §2, §3, §4, §5

[2] = system: A549 (non-small cell lung carcinoma); assay: WST-1 cell viability assay, 48-h incubation; assay type: cell-based, human; details: A549, WST-1, 48 h, vs. vehicle; even at 3 µM in some (unnamed) cell lines
Description: as §1, §2, §3, §4, §5

[3] = Storage stability in human plasma, LC-MS/MS after plasma precipitation; assay type: in vitro ADME; details: for Stability 4 °C / Stability AS (autosampler) / Stability −20 °C / Stability BT (benchtop): 24 h; for Stability FT (freeze-thaw): freeze-thaw cycles; for Stability BT (benchtop): room temperature
Description: To assess stability, low and high concentrations of all analytes were subjected to different storage conditions. […] For determination of long-term stability, samples were stored in either plasma or DMEM at –80 °C for 90 and 91 days, respectively. To measure short-term stability, samples were stored at room temperature, in an autosampler, at 4 °C, and at –20 °C for 24 h. In addition, freeze-thaw cycles were performed according to FDA guidance for the standard solutions. For comparison, at least three freshly prepared samples were prepared for each concentration level. With the exception of autosampler stability, the internal standard was always added to all samples before sample processing was started.
After mixing the 1.5 µM internal standard and the plasma sample, protein precipitation was commenced. Next, 190 µL of acetonitrile and 50 µL of 0.5 M sulfuric acid buffer were added. The tubes were then shaken at 1400 rpm for 5 min followed by centrifugation at 14,000 rpm for 5 min. Subsequently, 195 µL of the supernatant was transferred to an LC tube and analyzed.
To assess stability, low and high concentrations of all analytes were exposed to different storage conditions. To determine long-term stability, samples were stored in either plasma or DMEM at −80 °C for 90 and 91 days, respectively. To determine short-term stability, samples were stored for 24 h on the bench at room temperature, in the autosampler, at 4 °C, and at −20 °C. In addition, freeze-thaw cycles were performed for the standard solutions according to FDA guidance. At least three freshly prepared samples per concentration level were prepared for comparison. With the exception of the stability test in the autosampler, the internal standard was always added to all samples before sample processing was started. However, to avoid concentration fluctuations due to possible degradation of the analytes, stock solutions were prepared twice a week and stored at −20 °C. Each storage condition was examined in the dark. For all conditions studied, n = 3–6 replicates were prepared.

[4] = as above; assay type: in vitro ADME; details: long-term freezing

| Compound | concentration from which significant cytotoxic effects start (A375 (melanoma)) [µM] | concentration from which significant cytotoxic effects start [1] [µM] | concentration from which significant cytotoxic effects start [2] [µM] | Stability 4 °C ([3]; 2.0 nM) [%] | Stability AS (autosampler) ([3]; 2.0 nM) [%] | Stability −20 °C ([3]; 2.0 nM) [%] | Stability FT (freeze-thaw) ([3]; 2.0 nM) [%] | Stability BT (benchtop) ([3]; 2.0 nM) [%] | Stability 4 °C ([3]; 167 nM) [%] | Stability AS (autosampler) ([3]; 167 nM) [%] | Stability −20 °C ([3]; 167 nM) [%] | Stability FT (freeze-thaw) ([3]; 167 nM) [%] | Stability BT (benchtop) ([3]; 167 nM) [%] | Stability −80 °C 91 d ([4]; 2.0 nM) [%] | Stability −80 °C 91 d ([4]; 167 nM) [%] |
| --- | --- | --- | --- | --- | --- | --- | --- | --- | --- | --- | --- | --- | --- | --- | --- |
| O=C1/C(=C2/C(=O)N([C@@H]3O[C@H](CO)[C@@H](O)[C@H](O)[C@H]3O)c3ccccc32)Sc2ccccc21 [KD87, 3-[3′-oxo-benzo[b]thiophen-2′-(Z)-ylidene]-1-(β-D-glucopyranosyl)-oxindole] | ≤ 6 | ≤ 6 | ≤ 6 | 81.4 ± 3.1 | 105.7 ± 6.7 | 94.6 ± 2.8 | 98.8 ± 5.6 | 64.3 ± 5.6 | 84.5 ± 2.0 | 99.9 ± 4.8 | 92.6 ± 2.6 | 97.9 ± 4.1 | 75.0 ± 3.5 | 96.7 ± 8.6 | 106.0 ± 1.4 |
| O=C1/C(=C2/C(=O)N([C@@H]3O[C@H](CO)[C@@H](O)[C@H](O)[C@@H]3O)c3ccccc32)Sc2ccccc21 [KD85, 3-[3′-oxo-benzo[b]thiophene-2′-(Z)-ylidene]-1-(β-D-mannopyranosyl)-oxindole] | ≤ 6 | ≤ 6 | ≤ 6 | 81.3 ± 3.4 | 97.6 ± 8.0 | 90.1 ± 5.7 | 107.9 ± 4.9 | 57.5 ± 4.1 | 85.5 ± 1.9 | 99.6 ± 4.1 | 96.3 ± 2.3 | 99.5 ± 3.8 | 70.3 ± 3.2 | 105.1 ± 12.4 | 108.2 ± 3.7 |

Source: publication PMC9101087, “A Sensitive LC-MS/MS Method for the Simultaneous Determination of Two Thia-Analogous Indirubin N-Glycosides and Indirubin-3′-Monoxime in Plasma and Cell Culture Medium” (Molecules, 2022)
